Measured values taken from paper PMC13183915, “A platinum butterfly effect: small changes turn an anticancer drug into a non-toxic metalloantibiotic with in vivo efficacy” (npj Antimicrobials and Resistance, 2026).

Test system: S. aureus ATCC 29213
Assay: Murine superficial skin infection model
Format: in vivo
Conditions: topical 2% cream, twice daily for 4 days, Swiss mice
Experimental: The in vivo efficacy of Pt1 was determined in a superficial skin infection model. Briefly, male Swiss mice, 4–6 weeks old, weighing ∼22–25 g, were used throughout the study. Mice were caged alone in an individually vented cage (IVC) to check cross-contamination and to maintain aseptic conditions throughout the experiment. Ketamine and xylazine were prepared in distilled water, 40 mg/kg and 8 mg/kg of body weight, respectively, and injected intraperitoneally (IP) as a mixture of 100 μL in each mouse for anaesthesia. Then, we proceeded with the removal of fur by applying depilatory cream. The area was cleaned with sterile distilled water. Approximately 2 cm^2 of skin area was scratched until it became visibly reddened and glistening without any bleeding. For bacterial infection, a 10 μL droplet containing 10^7 CFU/mL of S. aureus ATCC 29213 was applied to the reddened area of skin. To confirm the infection, post 4 h, untreated mice were sacrificed, skin homogenized, and various dilutions of the treatment groups (6 mice per group) were plated on TSA plates. […] Henceforth, the drug regimen was comprised of twice daily application (in the morning and the evening, with an 8 h interval) for 4 days. Control mice were regularly treated with 25–30 mg each of 2% fusidic acid (LEO Pharma, Ballerup, Denmark), 2% infuzide, and base (vehicle). […]

Compound: CC(=O)O[C@H]1C[C@@]2(C)[C@@H](C[C@@H](O)[C@H]3[C@@]4(C)CC[C@@H](O)[C@@H](C)[C@@H]4CC[C@@]32C)/C1=C(\CCC=C(C)C)C(=O)O [fusidic acid]
- reduction in bacterial load compared to vehicle-treated group: ~ 2.9 log10 CFU/g
